Reference: patent US9572347B2, “Method for inactivating a virus” (THE UNIVERSITY OF TOKYO, priority 2009, dated 2017)

test system: Qβ phage (NBRC 20012); assay: phage inactivation ability test on sample-coated glass plate (Example 1 method); type: cell-based; settings: same copper ion ratio, contact of 30 minutes, FIG. 2

| Compound | phage inactivation effect |
| --- | --- |
| cupric sulfide [CuS, reference compound] | almost no inactivation effect |
| [Cu+].[I-] [CuI, cuprous iodide] | high phage inactivation effect |
| [Cl][Cu] [CuCl, cuprous chloride] | almost the same phage inactivation ability as that of cuprous oxide |
| cuprous sulfide [Cu2S] | high phage inactivation effect |
